Assay results as given in paper PMC9029856, “Impact of Different [Tc(N)PNP]-Scaffolds on the Biological Properties of the Small cRGDfK Peptide: Synthesis, In Vitro and In Vivo Evaluations” (Molecules, 2022).
Read-outs that look alike come from different tables or passages of the source.

Legend:
[1] = assay type: physicochemical
Experimental: To explore the impact of the PNP ligand on the lipophilicity of the complexes, Log Ps in a mixture of n-octanol and PBS were determined. The lipophilicity decreased in the order ^99mTc1 > ^99mTc2 > ^99mTc3. The lipophilic character of each compound correlated well with the corresponding HPLC retention time and protein binding behavior.
Determination of log P values. n-Octanol/PBS partition coefficients were determined by vortex mixing (20 min) 3.0 mL of n-octanol, 3.0 mL of PBS and 100 µL of the radiolabeled compound purified as above. After centrifugation (3000 g for 10 min), aliquots (100 µL) of both the organic and the aqueous phases were collected and counted with a γ-counter.

[2] = assay type: in vitro ADME; conditions: serum
Experimental: Thus, to have some predictive indications of the metabolic outcome of our compounds, the binding to serum proteins and the enzymatic biotransformation of ^99mTc1–3 in blood and tissue homogenates were assessed in vitro by incubating the purified compounds at 37 °C in human and mouse sera as well as in murine liver and kidney homogenates.
Protein Binding. The affinity of the ^99mTc(N) complexes toward the serum proteins was evaluated by chromatographic methods.
Upon incubation, 25 µL of each sample was withdrawn and loaded on a pre-spun (735× g for 2 min) Sephadex G-50 mini-column. The column was centrifuged at 735 × g for 1 min. The collected eluate and the column were counted in a NaI-scintillation counter. The protein-bound complex was calculated as the percentage of the total activity.

[3] = tested on: human melanoma M21 (αvβ3 positive) cells; assay: Cell uptake and internalization in M21 cells; assay type: cell-based
Experimental: (§1) Cell uptake and internalization studies were performed on receptor-positive human melanoma M21 (expressing high levels of αvβ3 integrin and moderate level of integrin αvβ5), human breast cancer MCF7 (exclusively expressing αvβ5), and receptor-negative human melanoma M21L cell lines. The expression of αvβ3 and αvβ5 by cells was already evaluated by flow cytometry (Table 2). The stability of each radiolabeled peptide in the culture media before and after cell exposure was assessed.
(§2) Experiments were conducted in suspension at 37 °C. The working conditions were set up to avoid cell damage and/or death. With the use of these information, the cells were pre-incubated in sterile glass tubes at 37 °C for 10 min, in the presence or not of cRGDfK pentapeptide (50 µL; 1.65 mM).
(§3) Then, 1 mL of the cell suspension (1 × 10^6 cells/mL) was incubated with intermittent agitation with 10 µL (10 µCi) of ^99mTc1–3. At 90 min, the cells were moved in Eppendorf microcentrifuge tubes (1.5 mL) and the incubation was interrupted by centrifugation (3000 rpm for 5 min at 10 °C). The supernatant (S1) was separated from the pellet. The cell pellet was treated 10 min at room temperature with saline acetate buffer (CH3COOH 0.2M/NaCl 0.5 M) to remove the membrane-bound compound. After centrifugation (3000 rpm for 10 min at 10 °C), the supernatant (S2) was separated from the pellet (P1), and each fraction was collected, placed in a separated counting tube, and the activity was measured using a NaI counter (Cobra II, Packard) to estimate both the cell uptake and the internalized fraction.
(§4) The uptake of complexes was expressed as percentage cell uptake of the total activity on 10^6 cells (% cell uptake/10^6 cells).
(§5) All assessments were conducted in triplicate for three experiments.

[4] = tested on: receptor-negative human melanoma M21L cells; assay: Cell uptake and internalization in M21L cells; assay type: cell-based; conditions: negative M21L cell line, 37 °C, 90 min
Experimental: as §1, §2, §3, §4, §5

[5] = tested on: M21 and M21L melanoma tumors; conditions: cited from earlier work; for Blood / Heart / Intestine / Kidneys / Liver / Muscle / Stomach: tumor-bearing mice

With N=C(N)NCCC[C@@H]1NC(=O)[C@H](CCCCNC(=O)c2ccc(NN)nc2)NC(=O)[C@@H](Cc2ccccc2)NC(=O)[C@H](CC(=O)O)NC(=O)CNC1=O [^99mTc-HYNIC-cRGDfK, metal not drawn] the logP [1] was -3.52, the fraction unbound [2] was 0.977 and the “cell uptake (sum of surface bound and internalized radioactivity), blocked” value ([3]; M21 blocked by an excess of cold cRGDfK, 37 °C, 90 min) was 0.85 ± 0.08 % cell uptake/10^6 cells. The “cell uptake (sum of surface bound and internalized radioactivity)” value ([3]; M21 unblocked, 37 °C, 90 min) was 1.50 ± 0.08 % cell uptake/10^6 cells, the “specific/nonspecific ratio, internalized radioactivity only” value ([3]; internalized radioactivity, melanoma cell lines) was 6.6 and the “ratio between specific and non-specific uptake” value ([3]; total uptake, melanoma cell lines) was 1.15. The “cell uptake (sum of surface bound and internalized radioactivity)” value [4] was 1.30 ± 0.15 % cell uptake/10^6 cells, the M21/M21L ratio ([5]; 1 h p.i.) was 3.21 and the M21/blood ratio ([5]; 1 h p.i.) was 2.79. For the same compound, the M21/kidneys ratio ([5]; 1 h p.i.) was 0.74, the M21/liver ratio ([5]; 1 h p.i.) was 1.03 and the M21/muscle ratio ([5]; 1 h p.i.) was 3.59. The M21L tumor uptake ([5]; 1 h p.i.) was 0.85 ± 0.20 %IA/g, the M21 tumor uptake ([5]; 1 h p.i.) was 2.73 ± 0.26 %IA/g and the M21/blood ratio ([5]; 4 h p.i.) was 4.58. For the same compound, the M21/kidneys ratio ([5]; 4 h p.i.) was 0.73, the M21/liver ratio ([5]; 4 h p.i.) was 1.20 and the M21/muscle ratio ([5]; 4 h p.i.) was 6.05. For the same compound, the M21 tumor uptake ([5]; 4 h p.i.) was 2.06 ± 0.37 %IA/g, the Blood ([5]; 1 h p.i.) was 0.98 ± 0.04 %IA/g and the Heart ([5]; 1 h p.i.) was 1.01 ± 0.05 %IA/g. For the same compound, the Intestine ([5]; 1 h p.i.) was 2.04 ± 0.18 %IA/g, the Kidneys ([5]; 1 h p.i.) was 3.68 ± 0.13 %IA/g and the Liver ([5]; 1 h p.i.) was 2.63 ± 0.14 %IA/g. The Muscle ([5]; 1 h p.i.) was 0.76 ± 0.69 %IA/g, the Stomach ([5]; 1 h p.i.) was 2.50 ± 0.75 %IA and the Blood ([5]; 4 h p.i.) was 0.45 ± 0.02 %IA/g. The Heart ([5]; 4 h p.i.) was 0.64 ± 0.09 %IA/g, the Intestine ([5]; 4 h p.i.) was 1.29 ± 0.25 %IA/g and the Kidneys ([5]; 4 h p.i.) was 2.81 ± 0.37 %IA/g. For the same compound, the Liver ([5]; 4 h p.i.) was 1.71 ± 0.28 %IA/g, the Muscle ([5]; 4 h p.i.) was 0.34 ± 0.05 %IA/g and the Stomach ([5]; 4 h p.i.) was 1.28 ± 0.22 %IA.
